How the values were obtained:
[1] = test system: mouse model of psoriasis vulgaris; experiment: Mouse model of psoriasis vulgaris induced by TPA (ear epidermal weight gain, ear swelling rate); assay type: in vivo, ddY mice; settings: for inhibited the epidermal weight gain: relative to control; for Epidermal weight % gain: right vs left auricle, 72 hours after TPA, mean±SD (n=6-9)
Experimental: The efficacy of EPC-K was assayed in the mouse model of psoriasis vulgaris using 12-o-tetradecanoylphorbol-13-acetate (briefly TPA).
Male 6-week-old ddY mice purchased from SLC Japan were used.
The entire external surface of the right auricle of each mouse was coated with 20 nmol/40 µl of TPA/methanol, and after 6, 24, 48 and 72 hours, the thickness of the auricle was measured with a dial thickness gauge. The ear swelling rate (%) was then calculated. At 72 hours after application of TPA, the mouse was sacrificed and the right and left auricles were respectively punched out with a 8 mm (dia.) punch. The epidermis of each auricle was peeled off and the epidermal weight was determined. Then, the % gain in epidermal weight of the right auricle relative to the left auricle was calculated.
Each test substance was extemporaneously blended with TPA-methanol and 40 µl of the mixture was applied to the external surface of the right auricle of each mouse. Then, a methanolic solution of the corresponding test substance, 40 µl, was applied once daily for 2 days.
Dunnet's test was used for statistical efficacy evaluation of the test substance.

[2] = Acute toxicity (LD50) in rats; settings: rat, in vivo
Experimental: The present compounds are very safe with extremely low toxic potential and can, therefore, be used with advantage for the purposes of this invention. For example, the LD50 of L-ascorbyl DL-α-tocopheryl phosphate potassium (abbreviation: EPC-K): is ≥ 5 g/kg p.o. (rats) and ≥ 100 mg/kg i.v. (rats).

Compound	body weight (side effect) ([1]; 25 µg/auricle)	ear swelling rate ([1]; 25 µg/auricle, 6, 24, 48 and 72 hours after TPA (Fig. 1))	inhibited the epidermal weight gain ([1]; 25 µg/auricle) [%]	Epidermal weight % gain ([1]; 25 µg/auricle) [%]	LD50 ([2]; iv) [mg/kg]	LD50 ([2]; po) [mg/kg]	inhibited the epidermal weight gain ([1]; 500 µg/auricle) [%]	Epidermal weight % gain ([1]; 500 µg/auricle) [%]	ear swelling rate ([1]; 1000 µg/auricle, compared with 25 µg betamethasone valerate (Fig. 1))	inhibited the epidermal weight gain ([1]; 1000 µg/auricle) [%]	Epidermal weight % gain ([1]; 1000 µg/auricle) [%]	ear swelling rate ([1]; 500 and 1000 µg/auricle, 6, 24, 48 and 72 hours after TPA (Fig. 1))
CCCCC(=O)O[C@]1(C(=O)CO)[C@@H](C)C[C@H]2[C@@H]3CCC4=CC(=O)C=C[C@]4(C)[C@@]3(F)[C@@H](O)C[C@@]21C [Betamethasone valerate, reference compound]	induced body weight loss	fairly potent efficacy but its effect had been attenuated by 24 and 48 hours after application	81.1	21.0±19.9	–	–	–	–	–	–	–	–
Cc1c(C)c2c(c(C)c1OP(=O)(O)OC1=C(O)[C@@H]([C@@H](O)CO)OC1=O)CCC(C)(CCCC(C)CCCC(C)CCCC(C)C)O2 (mixture of isomers) [EPC-K, L-ascorbyl DL-α-tocopheryl phosphate potassium]	–	–	–	–	≥ 100	≥ 5000	52.8	52.4±40.1	more potent inhibitory effect	80.3	21.8±17.4	dose-dependent inhibitory effects at all points of time

— patent EP0679399B1, “Phosphate diesters for treatment of epidermis proliferative diseases” (Senju Pharmaceutical Co., Ltd., priority 1994, dated 1995)
